According to patent publication US9333280B2, “Stabilized enzyme compositions” (Teleflex Medical Incorporated, priority 2009, dated 2016):

Test system: Staphylococcus aureus ATCC 33591
Assay: Adherence of bacteria on catheter segments
Type: cell-based
Settings: against the tested organisms
Method: In addition to fibrinolytic activity, antimicrobial activity of the 1% LMW-DexS (8 kDa) treated catheters was evaluated. In this test, adherence of gram positive bacteria Staphylococcus aureus ATCC 33591, on the catheter segments having immobilized enzyme uPA stabilized with 1% LMW-DexS (8 kDa), along with the antimicrobial agents such as gentian violet (0.6%) and chlorhexidine dodecanoate was compared to similarly treated catheter segments but without the LMW-DexS (8 kDa) stabilized enzyme.

SMILES	antimicrobial activity after attachment of LMW-DexS (8 kDa) stabilized urokinase
CCCCCCCCCCCC(=O)O.NC(=NCCCCCCN=C(N)N=C(N)Nc1ccc(Cl)cc1)N=C(N)Nc1ccc(Cl)cc1 [chlorhexidine dodecanoate]	not compromised
CN(C)c1ccc(C(=C2C=CC(=[N+](C)C)C=C2)c2ccc(N(C)C)cc2)cc1 [gentian violet]	not compromised
